Measurements: article PMC10610214 (Pharmaceuticals, 2023)

Assays:
COX-2 = COX-2 expression in LPS-stimulated BV2 cells (Western blot); format: cell-based; conditions: 1, 2, 4 μM
Protocol: BV2 cells were seeded into a 6-well plate at a density of 3.0 × 10^5 cells per well. After incubation overnight, the old medium was discarded. Then, the cells were pretreated with various concentrations (1, 2, and 4 μM) of 4h for 1 h and then co-incubated with LPS (1 μg/mL) for 24 h. After incubation was completed, the cells were washed twice with PBS, and 300 μL of cell lysis buffer (RIRA lysis buffer, phosphatase inhibitor, protease inhibitor, and PMSF) was added to each well. The cells were then incubated on ice for 30 min and centrifuged at 12,000 rpm at 4 °C for 30 min to collect the supernatant. The protein content in the supernatant was detected using the BCA protein detection kit (Beyotime, Shanghai, China). Total proteins were separated by 10% SDS-PAGE and then transferred from the gel to a PVDF membrane (Sigma-Aldrich, Shanghai, China). The membranes were blocked in TBST solution containing 5% skimmed milk for 2 h. Next, the membranes were washed three times (TBST) and incubated with primary antibody dilution (Cell Signaling Technologies, Boston, MA, USA) overnight at 4 °C. Then, they were washed another three times (TBST), incubated with the secondary antibody at room temperature for 90 min, and then washed three times with TBST. The blots were visualized by a chemiluminescence imager (Tanon 5200, Shanghai, China).

AChE = biological target: T1, AChE (Electrophorus electricus, UniProt O42275); assay: Kinetic study of AChE inhibition (Lineweaver–Burk); format: biochemical
T1 construct: AChE (from electric eel); purchased Sigma Chemical Company (St. Louis, MO, USA)
T1 sequence (O42275 24-633): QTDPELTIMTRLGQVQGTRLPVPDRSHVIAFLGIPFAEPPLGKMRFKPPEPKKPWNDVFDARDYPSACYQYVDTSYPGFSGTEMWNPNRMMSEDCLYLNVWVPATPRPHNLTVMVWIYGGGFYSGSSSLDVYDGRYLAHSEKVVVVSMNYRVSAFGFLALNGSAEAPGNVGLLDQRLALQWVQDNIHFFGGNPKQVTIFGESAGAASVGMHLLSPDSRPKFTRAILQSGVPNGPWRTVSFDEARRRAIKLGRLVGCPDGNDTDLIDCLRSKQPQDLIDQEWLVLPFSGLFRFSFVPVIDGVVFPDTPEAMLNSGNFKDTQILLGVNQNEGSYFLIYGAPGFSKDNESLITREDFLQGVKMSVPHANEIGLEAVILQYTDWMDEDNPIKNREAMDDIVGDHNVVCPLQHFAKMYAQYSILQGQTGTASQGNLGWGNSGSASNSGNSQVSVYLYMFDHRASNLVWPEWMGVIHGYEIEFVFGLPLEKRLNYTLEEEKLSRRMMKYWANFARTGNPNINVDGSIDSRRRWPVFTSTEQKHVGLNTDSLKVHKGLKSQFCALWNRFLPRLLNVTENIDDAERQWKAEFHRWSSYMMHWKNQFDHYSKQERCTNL
Protocol: The specific steps are similar to those described in Section 4.3 for the enzyme inhibition assay. In brief, 100 μL of different concentrations of 4h (0, 0.075, 0.15, and 0.3 μM)/4h (0, 3, 6, and 12 μM) and 100 μL of different concentrations of AChE/BuChE (1, 0.5, 0.25, 0.125, and 0.0625 U/mL) were added into 48-well plates and then co-incubated at 37 °C for 30 min. After the end of incubation, 100 μL of ATCI/BTCI (0.35 mM), 100 μL of PB solution, and 100 μL DTNB (0.35 mM) were added, and then changes in absorbance were measured at different times at 412 nm by multifunctional microplate reader, and the catalytic reaction rate of AChE/BuChE was determined. All concentrations are final. With the enzyme reaction rate V as the ordinate and AChE/BuChE concentration as the abscissa, the curve was drawn to determine the reversibility of the compound to AChE/BuChE.
In order to determination of inhibition types and the constant of AChE/BuChE, the concentration of AChE/BuChE (0.5 U/mL) in the reaction system was fixed. Five different substrate concentrations and four different concentrations of test compound 4h were used to measure the absorbance changes at different times at 412 nm. The reciprocal of the enzymatic reaction rate (1/V) was taken as the ordinate, and the reciprocal of the substrate ATCI/BTCI concentration (1/S) was taken as the abscissa.
[…]. […]

Aβ1-42 = Aβ1-42 (Homo sapiens, UniProt P05067); assay: TEM of Aβ1-42 self-aggregation; conditions: 4h 100 μM, Aβ1-42 5 μM, 48 h
Sequence of Aβ1-42 (P05067 672-713 limits assumed): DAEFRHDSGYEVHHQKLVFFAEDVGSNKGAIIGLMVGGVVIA
Protocol: Transmission Electron Microscope (TEM) studies were performed as previously described. […] After 2 days, a copper mesh was used to adsorb the samples, then stained with phosphotungstic acid, and the Aβ1-42 self-aggregation by TEM was observed (Talos L1200C, Thermo Fisher Scientific, Waltham, MA, USA).

AML-12 cells = assay: Hepatotoxicity in AML-12 cells (MTT); format: cell-based; conditions: 10, 30 and 50 μM
Protocol: The hepatotoxicity of compound 4h in normal AML-12 hepatocytes and HepG2 liver cancer cells was examined by MTT method. AML-12 cells and HepG2 cells were seeded into 96-well plates at a density of 5.0 × 10^3 cells per well, respectively. After the cells were incubated overnight, the old medium was discarded. The cells were incubated for 48 h with fresh medium containing various concentrations of the test compound. After 48 h of incubation, 20 μL of MTT (5 mg/mL) was added to each well and incubate for an additional 4 h. Formazan was dissolved with DMSO (150 μL). […]

P-gp (MDR1) = assay: in vitro; format: in vitro ADME; conditions: dog, MDCK-MDR1, MDCKII-MDR1
Protocol: (§1) Specifically, MDCKII-MDR1 cells (1 × 10^5 cell/cm^2) were seeded on polyester 12-well Transwell inserts (pore size: […], diameter: 12 mm, apical volume: 0.5 mL, basolateral: volume 1.5 mL) and cultured for 5–7 days to reach full differentiation as per TEER readings > 250 Ω·cm. […] After an incubation time of 2 h, samples were removed from the apical and basolateral side of the monolayer and were stored at −80 °C until further analysis.
(§2) The Papp was calculated according to the following equation (units of cm/s):(1) Papp=Va/area×time×Drugacceptor/Druginitial where “Va” is the volume in the acceptor well, “time” is the total transport time, “area” is the surface area of the membrane, “[Drug]initial” is the initial drug concentration in the AP or BL chamber, and “[Drug]acceptor” is the concentration of the drug in the acceptor chamber.
(§3) The ER was calculated using the following equation:ER = Papp, BL-AP/Papp, AP-BL(2) where “Papp, BL-AP” is the apparent permeability of basal-to-apical transport, and “Papp, AP-BL” is the apparent permeability of apical-to-basal transport.

MDCKII-MDR1 cells = assay: in vitro; format: in vitro ADME; conditions: efflux ratio
Protocol: as §1, §2, §3

TNF-α in BV2 cells = assay: TNF-α secretion in LPS-stimulated BV2 cells (ELISA); format: cell-based; conditions: Mus musculus, BV-2, 24 h, read-out: TNF-α inhibition IC50
Protocol: The cytotoxicity of compounds on BV2 cells were evaluated by MTT assay and similar to those described in Section 2.5. The NO concentrations in medium were determined using Griess Reagent assay (Beyotime) in accordance with a previously reported method. Nitrite is reduced to nitrogen oxide using Griess Reagent I. Nitrogen oxide then reacts with Griess Reagent II forming a stable product that can be detected by its absorbance at […]. The two-step assay is simple, fast, and can detect nitrite levels as low as 1 nmol/well. BV2 cells were seeded into a 48-well plate at a density of 6.0 × 10^4 cells per well. After the cells were incubated overnight, the old medium was discarded. Then, the cells were pretreated with various concentrations (10, 5, 1, 0.5, and 0.1 μM) of compounds for 1 h and then co-incubated with LPS (1 μg/mL, 30 μL/well) for 24 h. After 24 h, the cell supernatant (50 μL/well) was placed into a new 96-well plate for experiment. […] The absorbance at […] was measured by a microplate reader.
The contents of TNF-α and IL-β in the cell supernatant were measured via ELISA (Jyimei, Wuhan, China) following the manufacturer’s instructions.

For `O=C1c2cc(NS(=O)(=O)c3ccccc3F)ccc2-n2c1nc1ccccc1c2=O` [4h], the COX-2 expression (COX-2) was “significantly decreased the expression of COX-2 and iNOS”, the AChE inhibition type (AChE; Lineweaver–Burk double-reciprocal plot) was “mixed-type inhibition” and the Ki (AChE; Lineweaver–Burk secondary plot) was 83.1 nM. For the same molecule, the “Morphology of Aβ1-42 aggregates (TEM)” value (Aβ1-42) was “aggregation of Aβ1-42 samples was remarkably reduced”, the “Hepatotoxicity in AML-12 cells” value (AML-12 cells) was “had no toxicity” and the Papp A→B at 2 h, 75 μM (P-gp (MDR1); apical-to-basal, 2 h) was 18.1 ± 2.7 ×10⁻⁶ cm/s. For the same molecule, the Papp B→A at 2 h, 75 μM (P-gp (MDR1); basal-to-apical, 2 h) was 17.4 ± 2.2 ×10⁻⁶ cm/s, the efflux ratio at 2 h, 75 μM (P-gp (MDR1); efflux ratio, read-out: ER Papp BL/Papp AP) was 0.96 and the “ER Papp BL/Papp AP” value (MDCKII-MDR1 cells) was “less than two”. For the same molecule, the IC50 (TNF-α in BV2 cells) was 1310 ± 280 nM.
